US4992449A, “7-(substituted)cycloalkylamino-1 -(substituted)-6-fluoro-1,4-dihydro-4-oxo-3-quinolinecarboxylic acids” (American Cyanamid Company, priority 1990, dated 1991)
In brackets after ≈: the same amount, converted by molar mass. Like-named read-outs stand apart in the source and are kept apart here.

How the values were obtained:
Test in all cases: In vitro antibacterial MIC, agar plate dilution
Assay type in all cases: cell-based
[1] = tested on: Escherichia coli CMC 84-50; conditions: CMC8450, Mueller-Hinton agar, 10^4 CFU, 18 hours, 35° C.
Procedure, shortened: (§1)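 Mueller-Hinton agar plates containing serial compound dilutions; inoculum ~10^4 CFU/spot (Steers replicator); incubated 18 h, 35° C; MIC (mcg/ml) = lowest conc. with no visible growth.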

[2] = tested on: Klebsiella neumoniae IO 83-5; conditions: IO835, Mueller-Hinton agar, 10^4 CFU, 18 hours, 35° C.
Procedure, shortened: as §1

[3] = tested on: Klebsiella neumoniae MOR 84-24; conditions: MOR8424, Mueller-Hinton agar, 10^4 CFU, 18 hours, 35° C.
Procedure, shortened: as §1

[4] = tested on: Moranella morganii VGH 84-12; conditions: Mueller-Hinton agar, 10^4 CFU, 18 hours, 35° C.
Procedure, shortened: as §1

[5] = tested on: Pseudomonas aeruginosa CMC 83-20; conditions: CMC8320, Mueller-Hinton agar, 10^4 CFU, 18 hours, 35° C.
Procedure, shortened: as §1

[6] = tested on: Pseudomonas aeruginosa VGH 84-16; conditions: VGH8416, Mueller-Hinton agar, 10^4 CFU, 18 hours, 35° C.
Procedure, shortened: as §1

[7] = tested on: Pseudomonas aeruginosa VGH 84-4; conditions: Pseudomonas aeruginosa, VGH844, 18 h, Table II, read-out: MIC
Procedure, shortened: as §1

[8] = tested on: Serratia marcescens K 84-18; conditions: K8418, 18 h, Table II, read-out: MIC
Procedure, shortened: as §1

[9] = tested on: Staphylococcus aureus ATCC 29213; conditions: Staphylococcus aureus, ATCC29213, 18 h, read-out: MIC
Procedure, shortened: as §1

[10] = tested on: Staphylococcus aureus Smith 1; conditions: Staphylococcus aureus, SMITH1, 18 h, Table II, read-out: MIC
Procedure, shortened: as §1

Staphylococcus SSC 82-56 = conditions: SSC8256, 18 h, Table II
Procedure, shortened: as §1

[11] = tested on: Staphylococcus aureus CMC 83-131; conditions: CMC83131, Mueller-Hinton agar, 10^4 CFU, 18 hours, 35° C.
Procedure, shortened: as §1

[12] = tested on: Staphylococcus aureus NEMC 87-59; conditions: NEMC8759, 18 h, Table II
Procedure, shortened: as §1

[13] = Table I, Mueller-Hinton agar, 10^4 CFU, 18 hours, 35° C.

Row | SMILES | MIC [1] [µg/mL] | MIC [2] [µg/mL] | MIC [3] [µg/mL] | MIC [4] [µg/mL] | MIC [5] [µg/mL] | MIC [6] [µg/mL] | MIC [7] [µg/mL] | MIC [8] [µg/mL] | MIC [9, 13] [µg/mL] | MIC ([9]; Table II) [µg/mL] | MIC [10] [µg/mL] | MIC (Staphylococcus SSC 82-56) [µg/mL] | MIC [11] [µg/mL] | MIC [12] [µg/mL]
1 | CCn1cc(C(=O)O)c(=O)c2cc(F)c(N[C@@H]3CCC[C@@H]3N)cc21 (relative stereo) [Example 4, Cis-7-[(2-Aminocyclopentyl)amino]-1-ethyl-6-fluoro-1,4-dihydro-4-oxo-3-quinolinecarboxylic acid] | 2 (≈ 6 µM) | 2 (≈ 6 µM) | 2 (≈ 6 µM) | 2 (≈ 6 µM) | > 16 | > 16 | 64 (≈ 192 µM) | 4 (≈ 12 µM) | 4 (≈ 12 µM) | 128 (≈ 384 µM) | 8 (≈ 24 µM) |  |  | 
2 | N[C@H]1CCC[C@H]1Nc1cc2c(cc1F)c(=O)c(C(=O)O)cn2-c1ccc(F)cc1 (relative stereo) [Example 3] | 4 (≈ 10 µM) | 4 (≈ 10 µM) | 4 (≈ 10 µM) | 4 (≈ 10 µM) | > 16 | > 16 | 16 (≈ 40.1 µM) | 2 (≈ 5.01 µM) | 4 (≈ 10 µM) | 4 (≈ 10 µM) | 2 (≈ 5.01 µM) | 2 (≈ 5.01 µM) | > 16 | 4 (≈ 10 µM)
